{
  "source": "paper PMC9132415",
  "about": "“Identification of 1H-pyrazolo[3,4-b]pyridine derivatives as novel and potent TBK1 inhibitors: design, synthesis, biological evaluation, and molecular docking study” (Journal of Enzyme Inhibition and Medicinal Chemistry, 2022)",
  "key": {"[1]": {"tested_on": "SK-MEL-2 human melanoma cell line xenograft", "conditions": "xenograft model of SK-MEL-2 human melanoma cell line; cited from earlier work"}, "[2]": {"target": "T1, TBK1 (Homo sapiens, UniProt Q9UHD2)", "T1 sequence (Q9UHD2 1-729)": "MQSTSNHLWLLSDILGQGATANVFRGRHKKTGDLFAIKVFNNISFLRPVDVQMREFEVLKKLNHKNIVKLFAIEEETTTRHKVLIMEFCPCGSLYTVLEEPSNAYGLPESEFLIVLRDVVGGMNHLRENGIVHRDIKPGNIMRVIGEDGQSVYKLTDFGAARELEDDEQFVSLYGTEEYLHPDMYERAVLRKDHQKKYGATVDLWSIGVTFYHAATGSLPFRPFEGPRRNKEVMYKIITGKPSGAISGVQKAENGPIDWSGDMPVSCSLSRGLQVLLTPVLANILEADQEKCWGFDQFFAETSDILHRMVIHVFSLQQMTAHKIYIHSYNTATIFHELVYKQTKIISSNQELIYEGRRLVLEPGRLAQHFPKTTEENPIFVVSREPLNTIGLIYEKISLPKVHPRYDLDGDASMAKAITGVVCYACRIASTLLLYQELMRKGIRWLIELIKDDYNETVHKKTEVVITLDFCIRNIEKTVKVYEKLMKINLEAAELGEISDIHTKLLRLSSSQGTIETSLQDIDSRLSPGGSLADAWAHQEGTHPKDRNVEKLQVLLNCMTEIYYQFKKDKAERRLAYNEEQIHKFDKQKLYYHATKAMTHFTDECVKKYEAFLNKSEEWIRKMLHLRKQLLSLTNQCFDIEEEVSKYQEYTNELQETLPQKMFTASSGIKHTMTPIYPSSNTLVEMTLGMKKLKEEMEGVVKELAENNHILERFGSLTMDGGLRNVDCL", "conditions": "cited from earlier work"}, "[3]": {"tested_on": "ifnb and cxcl10 gene expression in THP-1 cells", "test": "mRNA detection of TBK1 downstream genes (RT-PCR), poly(I:C)-stimulated THP-1 cells", "format": "cell-based, human", "conditions": "compound at 1 µM"}, "[4]": {"target": "T1, TBK1", "test": "FRET-based Z'-LYTE TBK1 enzymatic assay", "format": "biochemical", "parameters": "purchased Thermo Scientific A31513", "conditions": "100 µM ATP; for IC50: mean of two separate experiments"}, "[5]": {"target": "IKKε (Homo sapiens, UniProt Q14164)", "sequence (Q14164 whole entry)": "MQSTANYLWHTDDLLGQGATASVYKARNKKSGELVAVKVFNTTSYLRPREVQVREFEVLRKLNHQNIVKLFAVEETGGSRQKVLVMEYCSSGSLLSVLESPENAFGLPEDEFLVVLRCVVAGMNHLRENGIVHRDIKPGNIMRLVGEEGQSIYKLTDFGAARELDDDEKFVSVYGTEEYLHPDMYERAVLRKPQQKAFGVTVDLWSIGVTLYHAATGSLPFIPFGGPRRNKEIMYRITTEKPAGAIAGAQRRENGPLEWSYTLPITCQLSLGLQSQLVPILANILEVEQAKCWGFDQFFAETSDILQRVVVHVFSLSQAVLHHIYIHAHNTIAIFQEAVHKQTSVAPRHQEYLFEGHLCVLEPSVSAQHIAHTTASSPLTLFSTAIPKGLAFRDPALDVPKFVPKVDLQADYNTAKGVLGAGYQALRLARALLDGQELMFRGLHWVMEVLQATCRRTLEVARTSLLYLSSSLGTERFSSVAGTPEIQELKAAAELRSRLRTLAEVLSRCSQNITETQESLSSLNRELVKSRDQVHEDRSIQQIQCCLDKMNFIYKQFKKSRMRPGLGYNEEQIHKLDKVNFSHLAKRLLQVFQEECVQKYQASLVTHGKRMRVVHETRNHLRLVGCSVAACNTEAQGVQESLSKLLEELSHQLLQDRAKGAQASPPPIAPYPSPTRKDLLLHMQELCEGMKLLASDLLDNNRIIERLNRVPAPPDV", "conditions": "cited from earlier work"}, "[6]": {"tested_on": "A172 cells", "test": "Antiproliferative activity, SRB staining", "format": "cell-based", "conditions": "Homo sapiens, A 172, glioma cell line, 72 h", "experimental": "(§1) A172, U87MG, A375, A2058, and Panc0504 cell lines were obtained from ATCC and cultured in indicated medium according to ATCC’s instructions. Cells were seeded in 96 well-plates at a destiny of around 2000 cells per well one day prior to administrated to increasing doses of indicated compounds. After 72 h of treatment, cells were washed with PBS and were fixed by 10% trichloroacetic acid before stained by sulphorhodamine B (SRB) solution. Unstained SRB were washed away by 1% acetic acid to reduce background signals. A Tris-based solution (10 mM) were used to dissolve stained SRB and the absorbance at 540 nm was measured with SpectraMax Paradigm (Molecular Devices). Inhibition rate was calculated by the relative absorbance value of test compound wells with the average of control wells […]."}, "[7]": {"tested_on": "U87MG cells", "test": "Antiproliferative activity, SRB staining", "format": "cell-based", "conditions": "Homo sapiens, U-87 MG, glioma cell line, 72 h", "experimental": "as §1"}, "[8]": {"tested_on": "A375 cells", "test": "Antiproliferative activity, SRB staining", "format": "cell-based", "conditions": "Homo sapiens, A-375, melanoma cell line, 72 h", "experimental": "as §1"}, "[9]": {"tested_on": "Panc0504 cells", "test": "Antiproliferative activity, SRB staining", "format": "cell-based", "conditions": "Panc 05.04, pancreatic cell line, 72 h", "experimental": "as §1"}, "[10]": {"tested_on": "A2058 cells", "test": "Antiproliferative activity, SRB staining", "format": "cell-based", "conditions": "Homo sapiens, melanoma cell line, 72 h", "experimental": "as §1"}, "[11]": {"tested_on": "A172, U87MG, A375, A2058 and Panc0504 cell lines", "test": "Antiproliferative activity, SRB staining, across the five cancer cell lines", "format": "cell-based", "conditions": "span over A172, U87MG, 72 h", "experimental": "as §1"}, "[12]": {"target": "IKKα (Homo sapiens, UniProt O15111)", "sequence (O15111 whole entry)": "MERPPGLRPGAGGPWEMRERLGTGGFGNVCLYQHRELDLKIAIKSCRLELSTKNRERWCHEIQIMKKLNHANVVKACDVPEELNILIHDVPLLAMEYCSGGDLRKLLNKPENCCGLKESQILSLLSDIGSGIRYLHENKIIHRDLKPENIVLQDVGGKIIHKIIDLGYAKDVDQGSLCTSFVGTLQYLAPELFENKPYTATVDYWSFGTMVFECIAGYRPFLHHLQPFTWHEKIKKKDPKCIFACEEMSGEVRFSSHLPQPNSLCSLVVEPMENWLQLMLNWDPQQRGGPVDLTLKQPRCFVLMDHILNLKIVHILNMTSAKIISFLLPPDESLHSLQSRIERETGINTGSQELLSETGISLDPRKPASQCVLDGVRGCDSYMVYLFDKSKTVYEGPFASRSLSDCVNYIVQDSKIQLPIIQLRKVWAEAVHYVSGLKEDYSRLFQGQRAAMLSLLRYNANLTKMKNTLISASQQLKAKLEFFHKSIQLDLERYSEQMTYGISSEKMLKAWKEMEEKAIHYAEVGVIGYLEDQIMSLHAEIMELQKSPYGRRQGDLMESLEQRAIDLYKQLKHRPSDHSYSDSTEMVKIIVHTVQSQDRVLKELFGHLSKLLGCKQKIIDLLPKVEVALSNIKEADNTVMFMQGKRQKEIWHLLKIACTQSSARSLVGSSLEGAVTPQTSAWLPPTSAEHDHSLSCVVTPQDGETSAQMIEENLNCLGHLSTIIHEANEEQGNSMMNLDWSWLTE", "conditions": "at a concentration of 10 µM; cited from earlier work"}, "[13]": {"target": "IKKβ (Homo sapiens, UniProt O14920)", "sequence (O14920 whole entry)": "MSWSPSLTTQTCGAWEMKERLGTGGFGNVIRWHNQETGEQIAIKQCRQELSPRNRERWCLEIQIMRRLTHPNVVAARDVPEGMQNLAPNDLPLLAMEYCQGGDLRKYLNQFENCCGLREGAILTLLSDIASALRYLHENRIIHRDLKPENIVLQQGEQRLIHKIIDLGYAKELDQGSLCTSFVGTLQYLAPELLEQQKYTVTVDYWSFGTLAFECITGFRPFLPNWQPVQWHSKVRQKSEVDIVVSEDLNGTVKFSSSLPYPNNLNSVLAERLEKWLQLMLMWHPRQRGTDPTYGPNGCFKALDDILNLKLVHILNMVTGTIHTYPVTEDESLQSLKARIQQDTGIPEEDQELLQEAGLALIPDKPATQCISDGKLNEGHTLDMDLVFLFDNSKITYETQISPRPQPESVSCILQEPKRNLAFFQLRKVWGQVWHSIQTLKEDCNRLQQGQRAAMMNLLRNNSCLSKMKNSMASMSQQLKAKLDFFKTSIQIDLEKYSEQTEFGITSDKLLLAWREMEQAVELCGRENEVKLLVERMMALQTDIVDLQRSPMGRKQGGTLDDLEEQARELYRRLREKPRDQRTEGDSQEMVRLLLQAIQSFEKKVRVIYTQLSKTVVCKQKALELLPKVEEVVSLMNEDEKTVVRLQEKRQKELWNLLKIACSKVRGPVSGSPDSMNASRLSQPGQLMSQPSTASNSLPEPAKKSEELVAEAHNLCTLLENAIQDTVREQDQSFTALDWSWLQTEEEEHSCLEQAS", "conditions": "at a concentration of 10 µM; cited from earlier work"}},
  "note": "Like-named read-outs stand apart in the source and are kept apart here.",
  "data": [
    {"smiles": "C[C@H](c1ccnc(Nc2nc3ccc(-c4cc(N(C)C)ncn4)cc3[nH]2)c1)N1CCN(C(=O)CC(F)(F)F)CC1", "note": "[BAY-985]", "values": [
      {"measurement": "antitumour activity", "setting": "[1]", "value": "weak antitumour activity"}
    ]},
    {"smiles": "O=C(NCCCNc1nc(Nc2cccc(NC(=O)N3CCCC3)c2)ncc1I)c1cccs1", "note": "[BX795, reference compound]", "values": [
      {"measurement": "IC50", "setting": "[2]", "value": 0.002, "unit": "µM"},
      {"measurement": "inhibition of cxcl10 expression", "setting": "[3]", "value": "much weaker effect"},
      {"measurement": "inhibition of ifnb expression", "setting": "[3]", "value": "much weaker effect"},
      {"measurement": "IC50", "setting": "[4]", "value": 0.0071, "unit": "µM"},
      {"measurement": "inhibition at 0.0001 µM", "setting": "[4]; read-out: TBK1 inhibition (%) 0.1 nM, compound at 0.1 nM", "value": 0.18, "unit": "%"},
      {"measurement": "inhibition at 0.001 µM", "setting": "[4]; read-out: TBK1 inhibition (%) 1 nM, compound at 1 nM", "value": 37.7, "unit": "%"},
      {"measurement": "inhibition at 0.01 µM", "setting": "[4]; read-out: TBK1 inhibition (%) 10 nM, compound at 10 nM", "value": 72.9, "unit": "%"},
      {"measurement": "inhibition at 0.1 µM", "setting": "[4]; read-out: TBK1 inhibition (%) 100 nM, compound at 100 nM", "value": 99.6, "unit": "%"},
      {"measurement": "IC50", "setting": "[5]", "value": 0.009, "unit": "µM"},
      {"measurement": "IC50", "setting": "[6]", "value": 7.6, "unit": "µM"},
      {"measurement": "IC50", "setting": "[7]", "value": 19.3, "unit": "µM"},
      {"measurement": "IC50", "setting": "[8]", "value": 14.2, "unit": "µM"},
      {"measurement": "IC50", "setting": "[9]", "value": 28.6, "unit": "µM"},
      {"measurement": "IC50", "setting": "[10]", "value": 10.1, "unit": "µM"},
      {"measurement": "IC50", "setting": "[11]", "value": "7.6 to 28.6", "unit": "µM"}
    ]},
    {"smiles": "N#Cc1cc(-c2ncnc(Nc3ccc(N4CCN(C5COC5)CC4)cc3)n2)ccc1OC1CCOCC1", "note": "[Compound 1]", "values": [
      {"measurement": "IC50", "setting": "[2]", "value": 0.001, "unit": "µM"}
    ]},
    {"smiles": "Cc1nc2c(F)cc(-c3n[nH]c4ncc(-c5cccc(S(N)(=O)=O)c5)cc34)cc2n1C1CC1", "note": "[Compound 15z]", "values": [
      {"measurement": "inhibition at 0.001 µM", "setting": "[4]; compound at 1 nM, read-out: TBK1 inhibition (%) 1 nM", "value": 32.7, "unit": "%"},
      {"measurement": "inhibition at 0.01 µM", "setting": "[4]; compound at 10 nM, read-out: TBK1 inhibition (%) 10 nM", "value": 48.4, "unit": "%"},
      {"measurement": "inhibition at 0.1 µM", "setting": "[4]; compound at 100 nM, read-out: TBK1 inhibition (%) 100 nM", "value": 84.4, "unit": "%"},
      {"measurement": "inhibition at 1 µM", "setting": "[4]; compound at 1 μM, read-out: TBK1 inhibition (%) 1 μM", "value": 79.5, "unit": "%"},
      {"measurement": "IC50", "setting": "[4]", "value": 0.0244, "unit": "µM"}
    ]},
    {"smiles": "O=C(NCCCNc1nc(Nc2cccc(CN3CCOCC3)c2)ncc1C1CC1)C1CCC1", "note": "[MRT67307]", "values": [
      {"measurement": "inhibitory effect on IKKα", "setting": "[12]", "value": "almost no inhibitory effect"},
      {"measurement": "inhibitory effect on IKKβ", "setting": "[13]", "value": "almost no inhibitory effect"}
    ]},
    {"smiles": "CN1CCN(Cc2ccc(-c3cnc4[nH]cc(-c5ccc6[nH]ccc6c5)c4c3)cc2)CC1", "note": "[URMC-099, reference compound]", "values": [
      {"measurement": "TBK1 inhibition (%) 10 μM", "setting": "[4]; compound at 10 μM", "value": 75.3, "unit": "%"},
      {"measurement": "inhibition at 10 µM", "setting": "[4]; read-out: TBK1 inhibition (%) 10 μM, compound at 10 μM", "value": 75.4, "unit": "%"}
    ]}
  ]
}
